Reference: PubChem BioAssay (NCI)
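Method: 48-hour compound exposure of cells in 96-well plates, five concentrations, linear interpolation of endpoints. GI50 = concentration required for 50% inhibition of growth. At the TGI there is no net growth.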

Experiments:
Assay in all cases: NCI-60 cell line screen, 48 h; in the data active means GI50 below about 0.43 µM; inactive means the rest
[1] = tested on: HCT-15 colon
[2] = tested on: UACC-257 melanoma
[3] = tested on: OVCAR-3 ovarian
[4] = tested on: EKVX NSCLC
[5] = tested on: CAKI-1 renal
[6] = tested on: HL-60(TB) leukemia
[7] = tested on: HCC-2998 colon
[8] = tested on: RPMI-8226 leukemia
[9] = tested on: SF-295 CNS
[10] = tested on: K-562 leukemia
[11] = tested on: HOP-62 NSCLC
[12] = tested on: UO-31 renal
[13] = tested on: PC-3 prostate
[14] = tested on: OVCAR-4 ovarian
[15] = tested on: MDA-MB-231 breast
[16] = tested on: LOX IMVI melanoma
[17] = tested on: DU-145 prostate
[18] = tested on: NCI-H522 lung
[19] = tested on: T-47D breast
[20] = tested on: SR leukemia
[21] = tested on: BT-549 breast
[22] = tested on: MDA-MB-435
[23] = tested on: COLO 205 colon
[24] = tested on: SF-268 CNS
[25] = tested on: SK-MEL-2 melanoma
[26] = tested on: M14 melanoma
[27] = tested on: HCT-116 colon
[28] = tested on: SK-OV-3 ovarian
[29] = tested on: SNB-19 CNS
[30] = tested on: OVCAR-8 ovarian
[31] = tested on: NCI-H226 lung
[32] = tested on: NCI-H460 lung
[33] = tested on: SW-620 colon
[34] = tested on: IGROV1 ovarian
[35] = tested on: KM12 colon
[36] = tested on: 786-0 renal
[37] = tested on: UACC-62 melanoma
[38] = tested on: NCI-H23 lung
[39] = tested on: HS 578T breast
[40] = tested on: SF-539 CNS
[41] = tested on: U251 CNS
[42] = tested on: HOP-92 NSCLC
[43] = tested on: A549 NSCLC
[44] = tested on: ACHN renal
[45] = tested on: SN12C renal
[46] = tested on: RXF 393 renal
[47] = tested on: SK-MEL-5 melanoma
[48] = tested on: MCF7 breast
[49] = tested on: CCRF-CEM leukemia
[50] = tested on: SK-MEL-28 melanoma
[51] = tested on: TK-10 renal
[52] = tested on: OVCAR-5 ovarian
[53] = tested on: MOLT-4 leukemia
[54] = tested on: NCI/ADR-RES ovarian
[55] = tested on: A498 renal
[56] = tested on: HT29 colon
[57] = tested on: MALME-3M melanoma
[58] = tested on: SNB-75 CNS

C=C(CN1CCc2ccccc2C1)c1ccc(C(=O)Nc2ccccc2N)cc1
active: GI50 [7] 0.0899 µM | GI50 [16] 0.316 µM | GI50 [50] 0.389 µM
2.03 µM: TGI [53]
6.76 µM: TGI [3]
18.4 µM: TGI [26]
6.53 µM: TGI [50]
> 12.3 µM: TGI [6]
4.23 µM: TGI [22]
4.76 µM: TGI [46]
> 32 µM: TGI [32]
6.86 µM: TGI [47]
9.74 µM: TGI [24]
> 12.9 µM: TGI [8]
inactive: GI50 [1] 0.94 µM | GI50 [2] 1.55 µM | GI50 [3] 1.38 µM | GI50 [4] 5.68 µM | GI50 [5] 1.2 µM | GI50 [6] 3.18 µM | GI50 [8] 0.793 µM | GI50 [9] 1.27 µM | GI50 [10] 2.32 µM | GI50 [11] 1 µM | GI50 [12] 2.87 µM | GI50 [13] 2.01 µM | GI50 [14] 1.92 µM | GI50 [15] 0.973 µM | GI50 [17] 2.45 µM | GI50 [18] 0.732 µM | GI50 [19] > 15.8 µM | GI50 [20] 0.484 µM | GI50 [21] 1.69 µM | GI50 [22] 1.47 µM | GI50 [23] 1.52 µM | GI50 [24] 1.87 µM | GI50 [25] 3.16 µM | GI50 [26] 1.73 µM | GI50 [27] 1.93 µM | GI50 [28] 1.08 µM | GI50 [29] 2.39 µM | GI50 [30] 1.09 µM | GI50 [31] 1.49 µM | GI50 [32] 3.06 µM | GI50 [33] 1.87 µM | GI50 [34] 1.54 µM | GI50 [35] 1.26 µM | GI50 [36] 1.53 µM | GI50 [37] 0.821 µM | GI50 [38] 0.677 µM | GI50 [39] 3.7 µM | GI50 [40] 1.3 µM | GI50 [41] 0.911 µM | GI50 [42] 3.37 µM | GI50 [43] 2.05 µM | GI50 [44] 1.01 µM | GI50 [45] 0.978 µM | GI50 [46] 1.37 µM | GI50 [47] 1.61 µM | GI50 [48] 2.08 µM | GI50 [49] 1.96 µM | GI50 [51] 5.74 µM | GI50 [52] 2.64 µM | GI50 [53] 0.72 µM | GI50 [54] 1.11 µM
5.11 µM: TGI [1]
17.6 µM: TGI [34]
15.7 µM: TGI [17]
3.53 µM: TGI [9]
3.17 µM: TGI [28]
15.8 µM: TGI [42]
5.32 µM: TGI [45]
19.4 µM: TGI [14]
> 39 µM: TGI [19]
6.16 µM: TGI [21]
0.379 µM: TGI [7]
12.7 µM: TGI [49]
> 9.95 µM: TGI [54]
13.8 µM: TGI [30]
9.2 µM: TGI [31]
36.5 µM: TGI [39]
14.8 µM: TGI [51]
11.6 µM: TGI [36]
> 42.8 µM: TGI [33]
4.28 µM: TGI [40]
3.3 µM: TGI [37]
> 23.2 µM: TGI [27]
3.72 µM: TGI [18]
17 µM: TGI [11]
7.69 µM: TGI [5]
4.8 µM: TGI [41]
16.2 µM: TGI [2]
1.2 µM: TGI [16]
> 20.2 µM: TGI [52]
> 11.3 µM: TGI [10]
3.5 µM: TGI [44]
> 50 µM: TGI [4] | TGI [13] | TGI [20] | TGI [29] | TGI [43]
8.8 µM: TGI [12]
3.15 µM: TGI [15]
> 31.6 µM: TGI [48]
4.54 µM: TGI [35]
7.4 µM: TGI [23]
19.1 µM: TGI [25]

CCOC1Oc2ccccc2-c2oc(=O)c(Sc3ccc(C)cc3)cc21 (configuration not stated)
inactive: GI50 [1] 27.6 µM | GI50 [2] 11.8 µM | GI50 [3] 18.1 µM | GI50 [4] 42.8 µM | GI50 [5] 35.4 µM | GI50 [6] 8.98 µM | GI50 [7] 52.2 µM | GI50 [8] 9.66 µM | GI50 [9] 19.2 µM | GI50 [10] 15.4 µM | GI50 [11] 58.5 µM | GI50 [12] 16.4 µM | GI50 [13] 17.8 µM | GI50 [55] 34.4 µM | GI50 [14] 25.1 µM | GI50 [15] 16.9 µM | GI50 [16] 24 µM | GI50 [56] 32 µM | GI50 [17] 31.8 µM | GI50 [18] 18.4 µM | GI50 [19] 1.63 µM | GI50 [21] 29.5 µM | GI50 [22] 23.6 µM | GI50 [23] 25.2 µM | GI50 [24] 27.9 µM | GI50 [25] 49.4 µM | GI50 [57] 24.6 µM | GI50 [26] 48.2 µM | GI50 [28] 20.5 µM | GI50 [29] 29.1 µM | GI50 [30] 51 µM | GI50 [31] 36.8 µM | GI50 [32] 20 µM | GI50 [33] 37.5 µM | GI50 [34] 26 µM | GI50 [35] 34.4 µM | GI50 [36] 36.3 µM | GI50 [37] 17.9 µM | GI50 [58] 32.6 µM | GI50 [38] 40.4 µM | GI50 [39] 34.5 µM | GI50 [40] 62.3 µM | GI50 [41] 25.1 µM | GI50 [42] 10.8 µM | GI50 [43] 19.3 µM | GI50 [44] 28.8 µM | GI50 [45] 29.5 µM | GI50 [47] 26 µM | GI50 [48] 19.8 µM | GI50 [49] 14.5 µM | GI50 [50] 84.2 µM | GI50 [51] 30.8 µM | GI50 [52] > 100 µM | GI50 [53] 6.73 µM | GI50 [54] 35 µM
67.7 µM: TGI [15]
60.5 µM: TGI [6]
75.8 µM: TGI [24]
95.3 µM: TGI [47]
91.6 µM: TGI [57]
> 100 µM: TGI [1] | TGI [3] | TGI [4] | TGI [5] | TGI [7] | TGI [9] | TGI [10] | TGI [11] | TGI [12] | TGI [13] | TGI [55] | TGI [14] | TGI [16] | TGI [56] | TGI [17] | TGI [21] | TGI [22] | TGI [23] | TGI [25] | TGI [26] | TGI [28] | TGI [29] | TGI [30] | TGI [31] | TGI [32] | TGI [33] | TGI [34] | TGI [35] | TGI [36] | TGI [37] | TGI [58] | TGI [38] | TGI [39] | TGI [40] | TGI [41] | TGI [44] | TGI [45] | TGI [48] | TGI [50] | TGI [51] | TGI [52] | TGI [54]
28.3 µM: TGI [53]
59 µM: TGI [43]
82.9 µM: TGI [18]
48.4 µM: TGI [42]
45.8 µM: TGI [2]
56.4 µM: TGI [19]
35.5 µM: TGI [8]
50.2 µM: TGI [49]
